{"source": "patent US7956065B2", "about": "“Pharmaceutical compounds” (Biovail Laboratories International (Barbados) S.R.L., priority 2008, dated 2011)", "key": {"[1]": {"test_system": "sub-chronic PCP-induced deficits in working memory in female hooded-Lister rats", "assay": "Novel object recognition (NOR) task after sub-chronic PCP treatment", "assay_type": "in vivo, rat", "description": "One of the symptoms of dementia is the progressive development of a cognitive deficit. Certain pre-clinical tests allow the observation of relatively subtle cognitive deficits in the rat. The cognitive deficits observed are seen in behaviours such as working memory deficits which may be measured by recognition tasks such as the novel object recognition (NOR) paradigm. A recognition memory task allows the comparison between presented stimuli and previously stored information. Ennaceur & Delacour, Behav. Brain Res. 31: 47-59 (1988) described the NOR test in rats which was based on the differential exploration of familiar and new objects. The NOR test is a non-rewarded, ethologically relevant paradigm based on the spontaneous exploratory behaviour of rats which measures working memory. Each session consists of two trials. In the first trial, the rats are exposed to two identical objects in an open field. During the second trial, rats are exposed to two dissimilar objects, one familiar object from the first trial and one new object. Object recognition in rats can be measured as the difference in time spent exploring the familiar and the new object. […] The duration of each trial is also important as a preference for the novel object only lasts during the first 1 or 2 minutes, after which time preference diminishes as both objects become familiar and are explored equally.\nThe abovementioned rodent model was used to assess the effects of the Isomer A on sub-chronic PCP-induced deficits in working memory using the novel object recognition (NOR) paradigm. The working hypothesis was that both acute and sub-chronic treatment with Isomer A will attenuate the selective working memory deficit induced by sub-chronic PCP as measured in the NOR test paradigm.\nRats are allowed to habituate to the empty test box and the behavioural test room environment for 1 hour on day 1. Prior to behavioural testing on day 2 rats are given a further 3 minutes habituation.\nFollowing the 3 minute habituation period, the rats are given two 3 minute trials (T1 and T2) which are separated by a 1 minute inter-trial interval in the home cage during which the objects are changed.\nIn this trial, the animals are allowed to explore two identical objects (A1 and A2) for 3 minutes.\nIn this trial, the animals explore a familiar object (A) from T1 and a novel object (B) for 3 minutes. The familiar object presented during T2 is a duplicate of the object presented in T1 in order to avoid any olfactory trails.\nThe object exploration is defined by animals licking, sniffing or touching the object with the forepaws whilst sniffing, but not leaning against, turning around, standing or sitting on the object. The exploration time (s) of each object (A1, A2, A and B) in each trial are recorded using two stopwatches and the following factors are calculated: • Total exploration time of both objects in the acquisition trial(s). • Total exploration time of both objects in the retention trial(s). • Habituation of exploratory activity. The LMA includes the exploration time, as measured by the number of lines crossed, for both the trials. • Discrimination index, which is calculated as shown below; (time spent exploring novel object−time spent exploring familiar object)÷total time spent in exploring the objects\nBehaviour in all trials was recorded on video for subsequent blind scoring.\n50 female hooded-Lister rats (Harlan, UK) were used as subjects for these studies. Rats were housed in groups of 5 under standard laboratory conditions under a 12 hr light:dark cycle, lights on at 0700 hr. All testing was carried out in the light phase. Food and water were freely provided. All experiments were conducted in accordance with the Animals Scientific Procedures Act, U.K. 1986 and were approved by the University of Bradford ethical review panel.\nRats were randomly assigned to two treatment groups and treated with vehicle, n=10 (distilled water, ip) or PCP, n=40 (2 mg/kg, ip) twice daily for 7 days. […]"}, "[2]": {"test_system": "PCP-induced cognitive deficit in the retention phase of the NOR task in female rats", "details": "cited from earlier work; for cognitive deficit in the retention phase of the NOR task: female rats"}}, "note": "Entries after “also recorded” stand apart in the source; their conditions may differ. Where a name gives a salt, the structure may show the parent alone. Read-outs that look alike come from different tables or passages of the source.", "data": [{"smiles": "COc1cc2c(cc1OC)[C@@H]1C[C@@H](O)[C@H](CC(C)C)CN1CC2", "note": "(single isomer, unassigned) [Isomer A]", "values": [{"measurement": "sedation (observation of the behaviour of the rats)", "setting": "[1]; Isomer A 30 mg/kg p.o.", "value": "did not appear sedated"}, {"measurement": "improvement of PCP-induced working memory deficit in retention phase of NOR task, statistical significance", "setting": "[1]; Isomer A 30 mg/kg p.o. (highest dose), FIG. 2", "value": "significant at the highest dose"}, {"measurement": "locomotor activity in the test arena (number of lines crossed, T1 and T2)", "setting": "[1]; Isomer A 30 mg/kg p.o., compared with vehicle control group, FIG. 4", "value": "significant effect to reduce locomotor activity"}, {"measurement": "discrimination index (DI) in sub-chronic PCP treated rats", "setting": "[1]; Isomer A 30 mg/kg p.o., did not reach statistical significance, FIG. 3", "value": "improved"}, {"measurement": "exploration of two identical objects in the acquisition phase (T1)", "setting": "[1]; Isomer A 3.0-30 mg/kg p.o., FIG. 1", "value": "no effect"}, {"measurement": "attenuation of sub-chronic PCP-induced deficit in retention trial (exploration time of familiar vs novel object)", "setting": "[1]; acute Isomer A 3-30 mg/kg p.o., 30 min before testing, sub-chronic PCP 2 mg/kg i.p. twice daily for 7 days then 7 days washout, FIG. 2", "value": "has efficacy to attenuate the sub-chronic PCP-induced deficit; also recorded: selective for the retention phase of the NOR task; also recorded: counteracted the effects of sub-chronic administration of phencyclidine hydrochloride (PCP)"}]}, {"smiles": "c1ccc(C2(N3CCCCC3)CCCCC2)cc1", "note": "[PCP, Phencyclidine hydrochloride]", "values": [{"measurement": "discrimination index (DI) after sub-chronic PCP treatment", "setting": "[1]; PCP 2 mg/kg i.p. twice daily for seven days, did not reach statistical significance, FIG. 3", "value": "induced a reduction in the discrimination index"}, {"measurement": "cognitive deficit in the retention phase of the NOR task", "setting": "[2]; acute PCP 0.5-2.0 mg/kg ip", "value": "produce a selective cognitive deficit"}, {"measurement": "cognitive deficit in the retention phase of the NOR task", "setting": "[2]; sub-chronic PCP 2 mg/kg i.p. twice daily for 7 days followed by 7 days drug-free period", "value": "produce a selective cognitive deficit"}]}, {"smiles": "O=C(CCCN1CCC(O)(c2ccc(Cl)cc2)CC1)c1ccc(F)cc1", "note": "[haloperidol]", "values": [{"measurement": "improvement of deficit induced by sub-chronic PCP in NOR paradigm", "setting": "[2]; haloperidol 0.05-0.075 mg/kg", "value": "not"}]}, {"smiles": "Cc1nc2n(c(=O)c1CCN1CCC(c3noc4cc(F)ccc34)CC1)CCCC2", "note": "[risperidone, reference compound]", "values": [{"measurement": "attenuation of sub-chronic PCP-induced deficit in retention trial", "setting": "[1]; risperidone 0.2 mg/kg i.p., 30 min before testing, FIG. 2", "value": "attenuate the sub-chronic PCP-induced deficit"}, {"measurement": "discrimination index (DI) in sub-chronic PCP treated rats", "setting": "[1]; risperidone 0.2 mg/kg i.p., did not reach statistical significance, FIG. 3", "value": "improved"}]}]}
